These results are taken from PMC10100877, “Identification of Small-Molecule Inhibitors of the Salmonella FraB Deglycase Using a Live-Cell Assay” (Microbiology Spectrum, 2023).

Assay [1] relates to fraB mutants of Salmonella. The arrangement: method as in PMID 27258673. Particulars: F-Asn made with the small-scale synthesis route; cited from earlier work.
Assay [2] relates to fraB mutants of Salmonella. Kind of assay: Growth inhibition (intoxication) of fraB mutants by F-Asn. The following applies: new gram-scale preparations of F-Asn. Type of assay: cell-based.
The test system of assay [3] is wild-type Salmonella (ASD200) live cells. Kind of assay: Live-cell growth assay, concentration-response (IC50/IC90) of the top 8 purchased compounds. The class given is cell-based, Salmonella enterica serovar Typhimurium. The following applies: for IC50: read-out: IC50 with live cells, value (95% CI), concentration that inhibits growth to 50%; for IC90: read-out: IC90 with live cells, value (95% CI), concentration that inhibits growth to 90%.

The target of assay [4] is recombinant FraB (Salmonella enterica subsp. enterica serovar Typhimurium, UniProt Q8ZLD0). The class given is biochemical. Particulars: for IC50: read-out: IC50 with recombinant FraB (mean ± SE); for Ki: read-out: Ki′ with FraB (mean ± SD).
recombinant FraB, sequence (Q8ZLD0 1-325): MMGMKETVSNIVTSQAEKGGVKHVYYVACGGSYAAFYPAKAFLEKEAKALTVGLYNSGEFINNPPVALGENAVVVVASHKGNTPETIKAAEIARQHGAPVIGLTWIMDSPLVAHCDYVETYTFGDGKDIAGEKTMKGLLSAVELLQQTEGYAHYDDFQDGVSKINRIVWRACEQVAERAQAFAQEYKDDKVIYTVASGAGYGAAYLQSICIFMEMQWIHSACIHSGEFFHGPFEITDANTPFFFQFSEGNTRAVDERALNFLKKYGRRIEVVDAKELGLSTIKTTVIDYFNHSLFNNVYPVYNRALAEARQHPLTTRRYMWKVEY
The mark [5] stands for this setting: M9 minimal medium, 5 mM glucose, 1 mM F-Asn, 17-h time point, 95% CI in brackets.

Each structure is given as a SMILES string. Counter-ions that a name gives are not always drawn. Like-named read-outs stand apart in the source and are kept apart here.

For `NC(=O)C[C@H](NCC(=O)[C@@H](O)[C@H](O)[C@H](O)CO)C(=O)O` [F-Asn, fructose-asparagine], the IC50 is about 20 µM in assay [1] and about 30 µM in assay [2].
`O=C(O)/C=C/Sc1ccccc1` [1737:K20]: the results for the IC50 in assay [3] (setting [5]) and in assay [4] were 121 µM and over 1000 µM, respectively. The IC90 in assay [3] (setting [5]) stood at 503 µM.
For `Nc1cc(C(=O)O)ccc1Nc1ccccc1` [1609:K19, 3-amino-4-(phenylamino)benzoic acid], in assay [3] (setting [5]), the IC50 was determined as 155 µM and the IC90 was determined as 411 µM. Moreover, in assay [4], the “mode of inhibition of FraB” value is on record as 116 ± 27; uncompetitive, the IC50 was found to be 114 ± 3.8 µM and the Ki worked out at 116 ± 27 µM.
Consider `CCOc1ccc(N2C(=O)NC(=O)/C(=C/c3cc(Cl)c(O)c(OC)c3)C2=O)cc1` [611:D03], for which, in assay [3] (17 h), the IC50 amounted to 100 µM and the IC90 is 240 µM.
With `O=c1c(=NO)c(=O)c2ccccc12` [1669:M19, triketoindan-2-oxime], in assay [3] (setting [5]), the IC50 is 109 µM and the IC90 was found to be 297 µM. Also, in assay [4], the “mode of inhibition of FraB” value was 26 ± 4; uncompetitive, the IC50 is 133 ± 0.8 µM and the Ki came out at 26 ± 4 µM.
As for `COc1ccc2[nH]c(SC)nc2c1` [1582:D17], in assay [3] (setting [5]), the IC50 was determined as 143 µM and the IC90 stood at 318 µM. For the same molecule, the IC50 in assay [4] is over 1000 µM.
On the same counts, the results for `C/C(=N\O)C(=O)c1ccc(Cl)cc1` [1789:D13] are 183 µM, 348 µM and over 1000 µM.
Regarding `c1ccc([B-]2(c3ccccc3)[NH2+]CCO2)cc1` [3403:P13, 2,2-diphenyl-1,3,2-oxaazaborolidine internal salt], in assay [3] (setting [5]), the IC50 is 89 µM and the IC90 stood at 184 µM. In assay [4], the “mode of inhibition of FraB” value turned out to be 27 ± 6 uncompetitive, the IC50 came to 35 ± 0.9 µM and the Ki came out at 27 ± 6 µM.

Broadly, the Ki is the dissociation constant of the complex between target and ligand, obtained from inhibition or displacement.
